“Also recorded” adds a separate entry of the source.
What was measured:
Type in all cases: cell-based
BRD4 [1] = biological target: T1, BRD4 (Homo sapiens, UniProt O60885); experiment: CURE-PRO-mediated BRD4 degradation with VHL ligands, Western blot, MCF7 cells; set-up: endogenous in cells; details: MCF7, 24 h, 1:1 with 8305, 100 nM-10 μM
Method: (§1) All cell lines were purchased from ATCC or DSMZ and grown at 37° C. with 5% CO2. Human HeLa cells were cultured in complete growth medium (Dulbecco's modified Eagle's medium (DMEM) supplemented with 10% FBS); MCF7 cells were cultured in complete growth medium (Dulbecco's modified Eagle's medium (DMEM) supplemented with 10% FBS and 0.01 mg/ml human recombinant insulin (Sigma Aldrich); Namalwa and MOLM-13 cells were cultured in complete growth medium (RPMI 1640 medium supplemented with 10% FBS); MV-4-11 were cultured in complete growth medium (Iscove's Modified Dulbecco's medium, supplemented with 10% FBS); HCT116 cells were cultured in complete growth medium (McCoy's 5a Medium supplemented with 10% FBS). For cellular degradation of BRD4 studies, cells were seeded in a 12-well plate at 70-80% confluency, allowed to attach overnight, and incubated with the indicated compounds for the indicated time. When indicated, a 15-minute pretreatment with 10 μM pomalidomide, 10 μM VHL298, 10 μM Nutlin3a, 1 μM MG-132 or 1 μM Carfilzomib was performed before the addition of CURE-PROs. For washout studies, after CURE-PRO treatment, media was aspirated and incubated with complete medium for the indicated time before lysis.
HeLa, MCF7, or HCT116 cells (2.5-3×10^6) were treated for 24 hours with the indicated compounds solubilized in DMSO. The cells were washed in ice-cold PBS and were then lysed in RIPA lysis buffer (150 mM NaCl, 5 mM EDTA, 1% NP-40, 0.5% sodium deoxycholate, 0.1% SDS, 50 mM Tris, pH 8.0.) with Roche protease inhibitor complete cocktail and phosphatase inhibitors (10 mM sodium fluoride, 10 mM sodium pyrophosphate, 1 mM sodium orthovanadate and 20 mM β-glycerophosphate). The total protein concentrations were determined by Bradford Protein Assay and 10-20 μg of protein was loaded onto 4-15% Tris-Glycine gradient gels (Biorad). After standard gel electrophoresis, the separated proteins were transferred to PVDF membrane by wet transfer. The immunoblots were then blocked for 1 hour in 5% skim milk in TBST or 5% BSA in TBST, according to manufacturer's instructions, before an overnight incubation at 4° C. with indicated antibodies and membranes. Membranes were then incubated with the appropriate horseradish peroxidase-conjugated secondary antibodies (1:5,000 dilution) for 1 h at room temperature and the bands were visualized using the Clarity Max Western ECL Substrate (Biorad) and the ChemiDoc Imaging System (Biorad). Signal was detected with ECL Western Blotting Substrate (Pierce) and X-ray film processed with a Konica SRX-101 X-ray film processor or captured by Bio-Rad's Chemidoc Imaging system.
MCF7 cells (3×10^6) were treated for 24 h with the compounds solubilized in DMSO. Compounds were added at 100 nM-10 μM. […]

BRD4 [2] = biological target: T1, BRD4; experiment: CURE-PRO-mediated BRD4 degradation, Western blot, HeLa cells; set-up: endogenous in cells; host or cells: HeLa; details: 24 h
How it was run: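 HeLa cells treated 24 h with compounds in DMSO (1-10 μM, 10 μM or 100 μM each; paired monomers combined 1:1), optional 15-min pretreatment with pomalidomide, VHL298, Nutlin3a (10 μM) or MG-132/carfilzomib (1 μM). RIPA lysates, 10-20 μg protein immunoblotted for BRD4 with β-actin, ECL detection.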

BRD4 [3] = biological target: T1, BRD4; experiment: CURE-PRO-mediated BRD4 degradation, WES (ProteinSimple), HeLa cells; set-up: endogenous in cells; host or cells: HeLa
Method: as §1
Anti-BRD4 (13440, 1:1,000 dilution for Western Blot and 1:25 dilution for ProteinSimple); Anti-BRD2 (5848 1:1,000 dilution for Western Blot and 1:25 dilution for ProteinSimple); β-Actin (3700, 1:2,000 dilution for Western Blot), β-Actin (4970, 1:50 dilution for ProteinSimple) anti-mouse IgG-HRP, and anti-rabbit IgG-HRP antibodies were purchased Cell Signaling Technology. Anti-GAPDH (600-401-A33, 1:100 dilution for ProteinSimple) was purchased from Rockland Immunochemicals, Inc. Anti-BRD3 (sc-81202, 1:200 dilution for Western Blot) was purchased from Santa Cruz Biotechnology.
WES Simple analysis was performed on WES system (ProteinSimple-Biotechne) according to the manufacturer's instructions. Total protein concentrations of cell lysates were determined by the Pierce BCA kit (Thermo Fisher). 3 μL of 0.3 μg/μL of the protein lysate was loaded onto a 12- to 230-kDa WES assay plate (ProteinSimple) where 300 nL sample was withdrawn through a capillary, subjected to electrophoretic separation of proteins by size, and followed by the simultaneous, HRP-based detection of proteins using the Anti-Rabbit Detection Module (Proteinsimple: #DM-001). The electropherograms were checked then the automatic peak detection was manually corrected if it was required.
HeLa cells (2.5×10^6) were treated for 4-24 hours with the compounds solubilized in DMSO. After 4 hours, indicated points were washed and cells were left in full growth media. Compounds were added at 10 μM each. […]

caspase 3/7 = experiment: Caspase-Glo 3/7 assay, Namalwa cells; details: 24 hours, 1:1 with 8047
Method: Caspase-glo® assay (Promega) was conducted following the manufacturer's recommendations. Cells were seeded at a density of 5000 cells/well in a white 96 well plates (Corning, #3917) in a total volume of 100 μl with respective monomers, combinations of BRD ligands together with E3 ligase ligands or vehicle control treatment. After a 24 h incubation, 100 μl of the […] substrate was added per well and luminescence was read on a Spectramax M5 (Molecular Devices).
Namalwa cells (5×104) were treated for 24 hours with the compounds solubilized in DMSO. FIG. 57 is a bar graph depiction of fold increase of apoptosis assessed via caspase 3/7 activity using the Caspase-glo assay (Promega) described above.
Molm-13 (FIG. 76A) or Namalwa (FIG. 76B) cells (5×10^4) were treated for 24 hours with the compounds solubilized in DMSO in white 96 well plates (10 nM-10 μM solubilized in DMSO). FIG. 76 is a bar graph depiction of fold increase of apoptosis assessed via caspase 3/7 activity using the Caspase-glo assay (Promega) described above.

BRD4 [4] = biological target: T1, BRD4; experiment: Summary of BRD4 degradation by CURE-PRO pairs, estimated from Western Blot or WES (Proteinsimple); set-up: endogenous in cells; details: Table 1, CRBN ligand
From the text: A black check mark indicates efficacy of 30% to 70% or higher protein degradation.

Row | SMILES | BRD4 degradation, with VHL ligand 8305 (Western blot) (BRD4 [1]) | BRD4 degradation, BRD ligand with pomalidomide (no 8047) (BRD4 [2]; 10 μM) | BRD4 degradation, co-treatment with CRBN ligand 8047 (BRD4 [2]; 1:1 with 8047, 10 μM each, Western blot) | BRD4 degradation, co-dosing with CRBN ligand 8047 (WES) (BRD4 [3]; 10 μM each, 4-24 h with washout after 4 h, or 100 nM-10 μM) | Concentration from which BRD4 protein expression decreases, with 8047 (WES) (BRD4 [3]; 24 h, tested 100 nM-10 μM each) [nM] | Caspase 3/7 activation, co-dosed with CRBN ligand 8047 (caspase 3/7) | Degradation of BRD4 in combination with CRBN ligand [drawing 371] (BRD4 [4]; second drawing (8047)) | Degradation of BRD4 in combination with CRBN ligand [drawing 372] (BRD4 [4]; third drawing (8066))
1 | COc1ccc2c(c1)C(c1ccc(Cl)cc1)=N[C@@H](CC(=O)NCc1ccc(B(O)O)cc1)c1nnc(C)n1-2 [BRD-E9, (4-((2-((4S)-6-(4-chlorophenyl)-8-methoxy-1-methyl-4H-benzo[f][1,2,4]triazolo[4,3-a][1,4]diazepin-4-yl)acetamido)methyl)phenyl)boronic acid] | there is degradation of BRD4 | – | – | – | – | – | – | –
2 | CCNC(=O)C[C@@H]1N=C(c2ccc(Sc3cccc(B(O)O)c3)cc2)c2cc(OC)ccc2-n2c(C)nnc21 [BRD-E52, (3-((4-((4S)-4-(2-(ethylamino)-2-oxoethyl)-8-methoxy-1-methyl-4H-benzo[f][1,2,4]triazolo[4,3-a][1,4]diazepin-6-yl)phenyl)thio)phenyl)boronic acid] | – | failed to induce BRD4 degradation | causes degradation of BRD4 | marked BRD4 degradation after 4h with sustained degradation for up to 8h after drugs are washed out | ≥ 300 | demonstrates activation of caspase 3/7; also recorded: marked caspase activation | ✓ (A black check mark indicates efficacy of 30% to 70% or higher protein degradation) | ✓ (A black check mark indicates efficacy of 30% to 70% or higher protein degradation)
